Experimental findings from ChEMBL document CHEMBL5728837, “Non-fused tricyclic compounds” (2021) are described below.

pIC50: −log10 of the molar value.

For orientation: pIC50 means the negative decadic logarithm of the IC50, by convention in mol/L. Broadly, the IC50 is the concentration that inhibits the measured activity by half.

The test can be described thus: YAP Reporter Assay: HEK293T cells stably transfected with 8XTBD luciferase reporter and pRLTK in 384-well plates were treated with the test compounds, starting from 3 μM (final concentration in assay plate), 1:3 dilution, and 10 points in quadruplicates. Post 24-hr incubation with compounds at 37° C. and 5% CO2, cells were lysed and 8XTBD-driven firefly luciferase and control TK-driven renilla luciferase activities were measured using Promega Dual-Luciferase Reporter Assay System.Reagents: The reagents used for this study are: DMEM: Invitrogen #11960077, Dual-Glo Luciferase Assay System: Promega-E2980, Puromycin Dihydrochloride: Invitrogen-A1113803, 384-well plate: PerkinElmer-6007480, L-GLUTAMINE: Invitrogen-25030164, Hygromycin B: Invitrogen-10687010, and Penicillin-Streptomycin: Merk-TMS-AB2-CMedia: The media used for this assay were: Culture Medium: DMEM+1 ug/mL puromycin+200 ug/mL hygromycin (with 10% FBS+1 mM L-glutamine); and Assay Medium: DMEM (with 10% FBS+1 mM L-glutamine+1× P/S).Cell Plating: The appropriate media was warmed at 37° C. by water bath: Culture Medium, Assay Medium, 1*D-PBS, 0.05% trypsin-EDTA. The cells were trypsinized after removing all media, then washed with 1*sterile D-PBS and then with 2 ml 0.05% trypsin-EDTA. The cells were then incubated at RT for one minute. Then 10 ml/75 cm2 flask Assay Medium was added to each flask. Using a 10 ml pipette, the cells were then gently resuspended in the media, until the clumps completely disappeared. The cells were then transferred into 50 ml centrifuge tubes and were centrifuged at 800 rpm for 5 mins. The medium was removed and the cells were resuspended with Assay Medium. An aliquot of cells was used to count the cell density (cells/nil). The cell suspension was then diluted with Assay Medium to a concentration of 6×10^4 cells/ml. 50 ul cells suspension was then plated to 384-well plate (PerkinElmer-6007480), 3×10^3 cells/well and the cells were incubated in an incubator at 37° C., 5% CO2.Compound Treatment: In the afternoon (incubation of the plate with 3-4 hrs), the test compounds were added by Echo, starting from 3 uM (final concentration in the assay plate), 1:3 dilution, 10 points, quadruplicates. The plate was placed at 37° C., 5% CO2 incubator for 24 hrs.Detection: The Dual-Glo Luciferase Reagent was prepared by transferring the contents of one bottle of Dual-Glo Luciferase Buffer to one bottle of Dual-Glo Luciferase Substrate to create the Dual-Glo Luciferase Reagent. Mixing was performed by inversion until the substrate was thoroughly dissolved. After mixing, the reagent was aliquoted into 15 ml tubes. In the afternoon (24 hrs post compound treatment), the DMEM+ medium in the 384 well plates were aspirated by Microplate Washer.Measuring firefly luciferase activity: 20 ul Dual-Glo Luciferase Reagent was added to the 384-well plates. The plates were protected from light to prevent interference with the assay. The plates were shaken for 1 min followed centrifuging plates at 1000 rpm for 30 seconds. After waiting at least 10 minutes, the firefly luminescence was measured by Envision.Measuring renilla luciferase activity: 20 ul Stop-Glo Reagent was added to the 384-well plates. The plates were shaken for lmin and then centrifuged at 1000 rpm for 30 seconds. After waiting at least 10 minutes, the renilla luminescence was measured by Envision. The conditions noted are these: HEK-293T, 24 h.
On to `C[C@@H](O)[C@H](C)n1nnc(-c2ccccc2Nc2ccc(C(F)(F)F)cc2)n1`, for which the negative-log IC50 (pIC50) was greater than 7.00. In the case of `CNCCn1nnc(-c2ccccc2Nc2ccc(C(F)(F)F)cc2)n1`, the IC50 result was “in the range around 550 nM”.

With `Cn1nc(-c2ccccc2Nc2ccc(C(F)(F)F)cc2)nc1CCO`, the IC50 result is “in the range around 3000 nM”. Regarding `FC(F)(F)OCCn1nnc(-c2ccccc2Nc2ccc(C(F)(F)F)cc2)n1`, the IC50 result was “in the range around 550 nM”. The same measure, in the same setting: next, `O[C@H]1CNC[C@@H]1n1nnc(-c2ccccc2Nc2ccc(C(F)(F)F)cc2)n1`: “in the range around 550 nM”.

With `C[C@H](O)[C@H](C)n1nnc(-c2ccccc2Nc2ccc(C(F)(F)F)cc2)n1`, the negative-log IC50 (pIC50) is greater than 7.00.

Turning to `OC1(Cn2nnc(-c3ccccc3Nc3ccc(C(F)(F)F)cc3)n2)COC1`, the negative logarithm of the IC50 (pIC50) was greater than 7.00. In the case of `CC(C)(C)OC(=O)N1CCCC(O)(Cn2nnc(-c3ccccc3Nc3ccc(C(F)(F)F)cc3)n2)C1` (stereo not drawn), the IC50 result was “in the range around 3000 nM”. Still for that read-out and setting: for `FC(F)OCCn1nnc(-c2ccccc2Nc2ccc(C(F)(F)F)cc2)n1` the value was “in the range around 550 nM”. For the compound `OC1(Cn2nnc(-c3ccccc3Nc3ccc(C(F)(F)F)cc3)n2)CSC1`, the pIC50 is greater than 7.00. In the case of `FC(F)(F)c1ccc(Nc2ccccc2-c2nnn(C3CCNC3)n2)cc1` (stereo not drawn), the IC50 entry is “in the range around 550 nM”.

`OCCn1nnc(-c2c(F)cccc2Nc2ccc(C(F)(F)F)cc2)n1`: the pIC50 was greater than 7.00. Still for that read-out and setting: next, `COc1ccc(-c2nnn(CCO)n2)c(Nc2ccc(C(F)(F)F)cc2)c1`: greater than 7.00. For the compound `CNCCCn1nnc(-c2ccccc2Nc2ccc(C(F)(F)F)cc2)n1`, the IC50 entry is “in the range around 3000 nM”. In the case of `OC1(Cn2nnc(-c3ccccc3Nc3ccc(C(F)(F)F)cc3)n2)CCCC1`, the negative-log IC50 (pIC50) was greater than 7.00. On to `FC(F)(F)c1ccc(Nc2ccccc2-c2nnn(CCOC3CCNCC3)n2)cc1`, for which the half-maximal inhibitory concentration (IC50) entry was “in the range around 550 nM”. Still for that read-out and setting: for `OC1(Cn2nnc(-c3ccccc3Nc3ccc(C(F)(F)F)cc3)n2)CCNC1` (stereo not drawn) the value was “in the range around 550 nM”. Consider `OCCn1nnc(-c2cc(Cl)ccc2Nc2ccc(C(F)(F)F)cc2)n1`, for which the pIC50 was greater than 7.00. On to `OCCn1nnc(-c2ccccc2Nc2ccc(Cl)cc2)n1`, for which the concentration for half-maximal inhibition (IC50) entry was “in the range around 550 nM”. Same read-out and setting: for `FC(F)(F)c1ccc(Nc2ccccc2-c2nnn(-c3cccnc3)n2)cc1` the value was “in the range around 3000 nM”. `CO[C@@H](C)[C@H](C)n1nnc(-c2ccccc2Nc2ccc(C(F)(F)F)cc2)n1`: the pIC50 was greater than 7.00. For the compound `[O-][S+]1CC(O)(Cn2nnc(-c3ccccc3Nc3ccc(C(F)(F)F)cc3)n2)C1` (stereo not drawn), the 50% inhibitory concentration (IC50) result was “in the range around 550 nM”. Same read-out and setting: next, `CCOC(=O)Cn1cnc(-c2ccccc2Nc2ccc(C(F)(F)F)cc2)c1`: “in the range around 550 nM”. Take `OCCn1nnc(-c2ccc(F)cc2Nc2ccc(C(F)(F)F)cc2)n1`: the negative-log IC50 (pIC50) was greater than 7.00. As to `[N-]=[N+]=Nc1ccc(Nc2ccccc2-c2nnn(CCO)n2)cc1`, the IC50 entry was “in the range around 550 nM”. As for `Cc1ccc(Nc2ccc(C(F)(F)F)cc2)c(-c2nnn(CCO)n2)c1`, the pIC50 was greater than 7.00. Still for that read-out and setting: next, `C[C@H](O)[C@@H](C)n1nnc(-c2ccccc2Nc2ccc(C(F)(F)F)cc2)n1`: greater than 7.00.

As to `FC(F)(F)c1ccc(Nc2ccccc2-c2nnn(CC3CCC3)n2)cc1`, the half-maximal inhibitory concentration (IC50) entry is “in the range around 550 nM”. For `OCCn1nnc(-c2cc(F)ccc2Nc2ccc(C(F)(F)F)cc2)n1`, the negative logarithm of the IC50 (pIC50) is greater than 7.00. On the same count and under the same terms, next, `C[C@H]([C@@H](C)O)n1nnc(-c2ccccc2Nc2ccc(C(F)(F)F)cc2)n1`: greater than 7.00. On to `Cn1nc(-c2ccccc2Nc2ccc(C(F)(F)F)cc2)cc1CCO`, for which the IC50 result was “in the range around 3000 nM”. Turning to `O[C@H]1CCC[C@H]1n1nnc(-c2ccccc2Nc2ccc(C(F)(F)F)cc2)n1`, the negative logarithm of the IC50 (pIC50) was greater than 7.00. Take `OC1(Cn2nnc(-c3ccccc3Nc3ccc(C(F)(F)F)cc3)n2)CCCNC1` (stereo not drawn): the IC50 entry is “in the range around 550 nM”. The same measure, in the same setting: next, `O[C@@H]1CNC[C@H]1n1nnc(-c2ccccc2Nc2ccc(C(F)(F)F)cc2)n1`: “in the range around 550 nM”; `O[C@@H]1CCC[C@@H]1n1nnc(-c2ccccc2Nc2ccc(C(F)(F)F)cc2)n1`: “in the range around 550 nM”; `OC1(Cn2nnc(-c3ccccc3Nc3ccc(C(F)(F)F)cc3)n2)CCN(c2ccccc2)C1` (stereo not drawn): “in the range around 3000 nM”.

As for `FC(F)(F)c1ccc(Nc2ccccc2-c2nnn(C3CNC3)n2)cc1`, the concentration for half-maximal inhibition (IC50) result is “in the range around 3000 nM”. Consider `COCCn1nnc(-c2ccccc2Nc2ccc(C(F)(F)F)cc2)n1`, for which the pIC50 is greater than 7.00. On to `OC(Cn1nnc(-c2ccccc2Nc2ccc(C(F)(F)F)cc2)n1)c1ccccc1` (stereo not drawn), for which the IC50 entry is “in the range around 3000 nM”. With `CCC(O)Cn1nnc(-c2ccccc2Nc2ccc(C(F)(F)F)cc2)n1` (stereo not drawn), the pIC50 is greater than 7.00.

As to `OC1(Cn2nnc(-c3ccccc3Nc3ccc(C(F)(F)F)cc3)n2)CCCOC1` (stereo not drawn), the half-inhibitory concentration (IC50) result was “in the range around 550 nM”. The same measure, in the same setting: for `CO[C@H](C)[C@@H](C)n1nnc(-c2ccccc2Nc2ccc(C(F)(F)F)cc2)n1` the value was “in the range around 550 nM”. Take `OC1(Cn2nnc(-c3ccccc3Nc3ccc(C(F)(F)F)cc3)n2)CNC1`: the IC50 result was “in the range around 550 nM”. Same read-out and setting: for `CC(=O)N1CCCC(O)(Cn2nnc(-c3ccccc3Nc3ccc(C(F)(F)F)cc3)n2)C1` (stereo not drawn) the value was “in the range around 550 nM”. The same measure, in the same setting: for `NCCCn1nnc(-c2ccccc2Nc2ccc(C(F)(F)F)cc2)n1` the value was “in the range around 550 nM”; for `Cn1nnc(-c2ccccc2Nc2ccc(C(F)(F)F)cc2)n1`, “in the range around 550 nM”. Same read-out and setting: next, `O=C1NCC(Cn2nnc(-c3ccccc3Nc3ccc(C(F)(F)F)cc3)n2)N1` (stereo not drawn): “in the range around 550 nM”. Take `CC(=O)OC1(CN2N=C(c3ccccc3Nc3ccc(C(F)(F)F)cc3)NN2)CN(C(C)=O)C1`: the IC50 result was “in the range around 3000 nM”.

Consider `OC1(Cn2nnc(-c3ccccc3Nc3ccc(C(F)(F)F)cc3)n2)CCC1`, for which the negative logarithm of the IC50 (pIC50) was greater than 7.00. On the same count and under the same terms, next, `OCCn1nnc(-c2cccc(F)c2Nc2ccc(C(F)(F)F)cc2)n1`: greater than 7.00. As for `CC(CO)c1nc(-c2ccccc2Nc2ccc(C(F)(F)F)cc2)nn1C` (stereo not drawn), the IC50 result is “in the range around 3000 nM”.

For `CO[C@@H](C)[C@@H](C)n1nnc(-c2ccccc2Nc2ccc(C(F)(F)F)cc2)n1`, the negative-log IC50 (pIC50) was greater than 7.00. Consider `CO[C@H](C)[C@H](C)n1nnc(-c2ccccc2Nc2ccc(C(F)(F)F)cc2)n1`, for which the IC50 result is “in the range around 550 nM”. The same measure, in the same setting: next, `O=C1NC(Cn2nnc(-c3ccccc3Nc3ccc(C(F)(F)F)cc3)n2)CO1` (stereo not drawn): “in the range around 550 nM”. Regarding `OC1(Cn2nnc(-c3ccccc3Nc3ccc(C(F)(F)F)cc3)n2)CCOC1` (stereo not drawn), the pIC50 was greater than 7.00. Consider `CC(=O)N1CC(O)(Cn2nnc(-c3ccccc3Nc3ccc(C(F)(F)F)cc3)n2)C1`, for which the IC50 entry was “in the range around 550 nM”.

For `NCCn1cnc(-c2ccccc2Nc2ccc(C(F)(F)F)cc2)n1`, the IC50 entry is “in the range around 550 nM”. On to `CC(C)C(O)Cn1nnc(-c2ccccc2Nc2ccc(C(F)(F)F)cc2)n1` (stereo not drawn), for which the IC50 result was “in the range around 550 nM”.

Consider `OC1(Cn2nnc(-c3ccccc3Nc3ccc(C(F)(F)F)cc3)n2)CCCN(c2ccccc2)C1` (stereo not drawn), for which the IC50 result was “in the range around 550 nM”.

`COC1CCCC1n1nnc(-c2ccccc2Nc2ccc(C(F)(F)F)cc2)n1` (stereo not drawn): the IC50 entry is “in the range around 550 nM”. As to `OC1(Cn2nnc(-c3ccccc3Nc3ccc(C(F)(F)F)cc3)n2)CC1`, the negative-log IC50 (pIC50) was greater than 7.00. For the compound `CC(=O)N1CCC(O)(Cn2nnc(-c3ccccc3Nc3ccc(C(F)(F)F)cc3)n2)C1` (stereo not drawn), the half-maximal inhibitory concentration (IC50) entry was “in the range around 550 nM”. As to `COc1ccc(Nc2ccc(C(F)(F)F)cc2)c(-c2nnn(CCO)n2)c1`, the negative-log IC50 (pIC50) is greater than 7.00. Still for that read-out and setting: next, `OCCn1nnc(-c2ccc(Cl)cc2Nc2ccc(C(F)(F)F)cc2)n1`: greater than 7.00. `OCCn1nnc(-c2ccccc2Nc2ccc(Br)cc2)n1`: the half-maximal inhibitory concentration (IC50) result was “in the range around 550 nM”. Still for that read-out and setting: next, `CC(N)Cn1nnc(-c2ccccc2Nc2ccc(C(F)(F)F)cc2)n1` (stereo not drawn): “in the range around 550 nM”; `FC(F)(F)c1ccc(Nc2ccccc2-c2nnn(CC3COC3)n2)cc1`: “in the range around 550 nM”; `FC(F)(F)c1ccc(Nc2ccccc2-c2nnn(-c3ccccn3)n2)cc1`: “in the range around 550 nM”.

Turning to `CC(CN)n1nnc(-c2ccccc2Nc2ccc(C(F)(F)F)cc2)n1` (stereo not drawn), the pIC50 is greater than 7.00. In the case of `NCCn1nnc(-c2ccccc2Nc2ccc(C(F)(F)F)cc2)n1`, the IC50 result is “in the range around 550 nM”. As for `OCCn1cnc(-c2ccccc2Nc2ccc(C(F)(F)F)cc2)c1`, the IC50 entry was “in the range around 550 nM”. For `O=C1N[C@H](Cn2nnc(-c3ccccc3Nc3ccc(C(F)(F)F)cc3)n2)CO1`, the concentration for half-maximal inhibition (IC50) result is “in the range around 550 nM”. For the compound `Cc1ccc(-c2nnn(CCO)n2)c(Nc2ccc(C(F)(F)F)cc2)c1`, the negative logarithm of the IC50 (pIC50) is greater than 7.00.
